Results from US20110039784A1, “COMPOSITION FOR TREATMENT OF ERECTILE DYSFUNCTION” (SUNGKYUNKWAN UNIVERSITY Foundation for Corporate …, priority 2009, published 2011).
Substitutions are numbered along the chain they refer to. One block for each compound: values may come before it. Ends that are not written are not given here.

Tests used:
TRPC6 ion channel [1] = target: T1, TRPC6 ion channel (Mus musculus, UniProt Q61143); test: Whole-cell patch clamp in HEK 293 cells transfected with wild-type TRPC6; format: cell-based; conditions: for whole-cell current at −100 mV: TRPC6-transfected HEK cells, n=5; for change of whole-cell current on application: membrane potential held at −60 mV, symmetrical 140 mM Cs, 200 μM PE or 100 μM CCh
T1 construct: expressed in transfected cells; host or cells: HEK 293
T1 sequence (Q61143 1-930): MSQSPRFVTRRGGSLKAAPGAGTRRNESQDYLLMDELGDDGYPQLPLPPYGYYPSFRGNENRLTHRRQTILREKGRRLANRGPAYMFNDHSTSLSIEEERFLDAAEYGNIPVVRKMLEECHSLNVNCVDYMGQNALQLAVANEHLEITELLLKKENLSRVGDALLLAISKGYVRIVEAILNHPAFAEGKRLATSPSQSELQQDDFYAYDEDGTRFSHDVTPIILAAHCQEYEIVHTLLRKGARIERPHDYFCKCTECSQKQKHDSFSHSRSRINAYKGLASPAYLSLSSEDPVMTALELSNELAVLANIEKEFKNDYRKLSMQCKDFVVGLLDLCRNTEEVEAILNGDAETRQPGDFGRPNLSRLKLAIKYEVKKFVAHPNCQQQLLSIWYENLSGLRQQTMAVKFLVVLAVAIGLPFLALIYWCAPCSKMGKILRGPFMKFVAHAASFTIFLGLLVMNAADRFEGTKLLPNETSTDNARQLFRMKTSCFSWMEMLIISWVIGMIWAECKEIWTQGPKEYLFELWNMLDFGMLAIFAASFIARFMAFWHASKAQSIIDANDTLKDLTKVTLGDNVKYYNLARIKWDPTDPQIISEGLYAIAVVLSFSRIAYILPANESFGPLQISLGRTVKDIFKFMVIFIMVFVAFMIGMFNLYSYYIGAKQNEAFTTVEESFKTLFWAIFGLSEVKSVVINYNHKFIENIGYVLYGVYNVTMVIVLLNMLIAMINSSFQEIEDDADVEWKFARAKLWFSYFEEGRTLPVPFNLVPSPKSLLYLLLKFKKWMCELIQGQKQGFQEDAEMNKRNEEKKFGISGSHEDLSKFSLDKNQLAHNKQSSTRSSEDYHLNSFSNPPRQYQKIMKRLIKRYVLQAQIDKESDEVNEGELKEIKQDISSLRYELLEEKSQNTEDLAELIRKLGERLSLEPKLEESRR
Experimental: The physiological function of the TRPC6 ion channel was examined in HEK cells which are free of ion channels. In this regard, GFP-TRPC6 pcDNA was transfected into HEK cells using a liposome and expressed therein. After the membrane potential was held at −60 mV, whole-cell currents were recorded in symmetrical 140 mM Cs conditions. […] At −100 mV, the current was −112.0±18.1 pA (n=5) in a 140 mM extracellular Cs condition, −90.0±15.0 pA (n=5) after adding 200 μM PE, and −460±169.5 pA (n=5) after adding 100 μM CCh. […] The PE/CCh-induced current was obtained after leak subtraction was performed (FIG. 3C).

TRPC6 ion channel [2] = target: T2, TRPC6 ion channel (Mus musculus, UniProt Q61143); test: Whole-cell patch clamp in human corporal smooth muscle cells transfected with wild-type or dominant negative TRPC6; format: cell-based; conditions: after ET-1, 1 mM La^3+
T2 construct: expressed in transfected cells; host or cells: human corporal smooth muscle cells
T2 sequence (Q61143 1-930 A105V/R114W/A184S/Y371D/R436P/G437R/T905S): T1 sequence (Q61143 1-930) with A105V, R114W, A184S, Y371D, R436P, G437R, T905S
Experimental: As described with HEK cells, the wild-type TRPC6 cDNA was expressed. After being selected, green-fluorescent cells were examined for the activity of the ion channel using a whole-cell patch clamp technique. At the −60 mV holding membrane potential with the external solution changed from Na-rich normal tyrode solution to 140 mM Cs, the inward current was increased; whereas no currents changed upon external treatment with ET-1, a typical inducer of smooth muscle contraction. At −100 mV, the current was −535.9±162.4 pA (n=5) in 140 mM extracellular Cs, and −462.1±150.5 pA (n=5) after adding 100 nM ET-1. The current-voltage (I-V) relationship of corporal smooth muscle cells was similar to that of HEK cells activated by CCh. […] (FIG. 4)
For genetic regulation of the TRPC6 ion channel in corporal smooth muscle cells, the cells transfected with the dominant negative form of the TRPC6 ion channel were examined for electrophysiological function.

maxi-K ion channel [3] = test: Whole-cell patch clamp in human corporal smooth muscle cells expressing rslo gene; format: cell-based, rat; conditions: rslo-expressed human corporal smooth muscle cells
Excerpt: As described with HEK cells, the rslo pcDNA was expressed. The ion channels were examined for activity using a whole-cell patch clamp technique. Under the condition of a pipette solution having a calcium concentration of pCa 6.5, the current was 60.1±7.2 pA/pF (n=22) at a membrane potential of +60 mV in the rslo-expressed cells, which increased in outward current four-fold compared to that of control (16.4±2 pA/pF n=9) (FIG. 9A). Under the condition of an intracellular calcium concentration of pCa 7, the current was 12.8±2 pA/pF (+60 mV, n=9) in the control and 38.1±7 pA/pF (+60 mV, n=13) in the rslo-expressed cells (FIG. 9B). […] The current-voltage (I-V) relationship was similar to that recorded in the HEK cells.

maxi-K ion channel [4] = target: T3, maxi-K ion channel (Rattus norvegicus, UniProt Q62976); test: Whole-cell patch clamp in HEK 293 cells expressing rslo gene; format: cell-based; conditions: rslo-expressed HEK cells
T3 construct: GFP; expressed in transfected cells; host or cells: HEK 293
Excerpt: The maxi-K ion channel is known to play an important role in reducing the contraction of smooth muscle responsible for the modulation of penile erection and relaxation. Together with GFP, the α-subunit (rSlo) coding sequence of calcium-dependent potassium ion channel cloned from the rat brain was subcloned into pcDNA3.1(+). After the expression of rSlo gene in HEK cells, green-fluorescent cells were selected under a mercury lamp light and observed for the electrophysiological properties of the ion channels using a whole-cell patch clamp technique. Cells were used within 24˜48 hrs after expression. […] At an intracellular calcium level of pCa 7, the current was read 10.4±3.2 pA/pF (+60 mV, n=6) in the control and 100.5±15.4 pA/pF (n=6) in the rslo-expressed cells (FIG. 8B).

[5] = tested on: corporal smooth muscle cells; test: Fura-2 intracellular calcium level in cultured corporal smooth muscle cells, ET-1 induced; format: cell-based, human; conditions: control corporal smooth muscle cells, n=3
Experimental: After fura-2 was loaded thereto, cultured corporal smooth muscle cells were measured for intracellular calcium levels. The extracellular addition of 50 nM endothelin-1 induced an increase in intracellular calcium level, with the separation of an initial increasing phase and a late constant phase (FIG. 7A).
Between the TRPC6 cDNA-transfected cells and the control cells, there are little differences in the initial phase. […] Intracellular calcium levels were also measured in the corporal smooth muscle cells where the dominant negative form of TRPC6 was expressed. […] Collectively, F340/380, accounting for ET-1-induced calcium increase, was measured to be 1.47±0.03 (n=3) in corporal smooth muscle cells (control), 1.53±0.09 (n=3) in corporal smooth muscle cells where TRPC6 was overexpressed, and 0±0 (n=3) in corporal smooth muscle cells where the dominant negative form of TRPC6 was expressed (FIG. 7D).

T3 sequence (Q62976 whole entry): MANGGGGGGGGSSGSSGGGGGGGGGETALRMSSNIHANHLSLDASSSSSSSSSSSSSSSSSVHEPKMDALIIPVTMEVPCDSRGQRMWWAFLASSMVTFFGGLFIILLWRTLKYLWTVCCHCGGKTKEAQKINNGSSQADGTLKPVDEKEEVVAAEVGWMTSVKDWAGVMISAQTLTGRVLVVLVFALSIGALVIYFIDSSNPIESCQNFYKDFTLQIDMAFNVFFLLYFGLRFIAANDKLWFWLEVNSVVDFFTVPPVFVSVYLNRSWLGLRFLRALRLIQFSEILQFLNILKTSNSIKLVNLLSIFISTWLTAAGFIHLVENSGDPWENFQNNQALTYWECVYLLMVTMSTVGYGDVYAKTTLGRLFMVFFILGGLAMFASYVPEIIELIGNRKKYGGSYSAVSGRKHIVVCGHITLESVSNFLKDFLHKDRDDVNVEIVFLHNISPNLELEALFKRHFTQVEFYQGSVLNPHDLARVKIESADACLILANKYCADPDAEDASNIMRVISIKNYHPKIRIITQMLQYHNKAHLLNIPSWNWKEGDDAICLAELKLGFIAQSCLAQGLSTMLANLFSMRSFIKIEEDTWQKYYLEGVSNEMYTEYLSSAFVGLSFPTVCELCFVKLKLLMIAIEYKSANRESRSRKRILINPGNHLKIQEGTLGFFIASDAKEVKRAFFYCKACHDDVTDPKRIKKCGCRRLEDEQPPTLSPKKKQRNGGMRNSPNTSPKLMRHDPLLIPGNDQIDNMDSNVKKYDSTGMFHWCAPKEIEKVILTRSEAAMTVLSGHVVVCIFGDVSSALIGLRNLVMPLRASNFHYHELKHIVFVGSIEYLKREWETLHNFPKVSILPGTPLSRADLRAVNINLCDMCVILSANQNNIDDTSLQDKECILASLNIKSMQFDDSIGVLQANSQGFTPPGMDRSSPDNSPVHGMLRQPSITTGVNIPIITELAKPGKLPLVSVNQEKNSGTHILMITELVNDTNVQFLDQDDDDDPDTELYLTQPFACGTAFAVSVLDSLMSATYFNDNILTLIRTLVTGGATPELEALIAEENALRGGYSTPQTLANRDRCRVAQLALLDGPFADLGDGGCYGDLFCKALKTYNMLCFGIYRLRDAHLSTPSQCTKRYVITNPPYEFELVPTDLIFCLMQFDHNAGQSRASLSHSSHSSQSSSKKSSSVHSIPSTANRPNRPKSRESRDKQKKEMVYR

Compound: C[N+](C)(C)CCOC(N)=O [CCh, carbachol]
whole-cell current at −100 mV (TRPC6 ion channel [1]; after adding 100 μM CCh): −460±169.5 pA
change of whole-cell current on application (TRPC6 ion channel [1]): increased inward currents

Compound: CC[N+](CC)(CC)CC [TEA]
effect on outward current (maxi-K ion channel [3]): decreased in a dose-dependent manner
effect on outward current (maxi-K ion channel [4]): decreased in a dose-dependent manner

Compound: endothelin-1 (CSCSSLMDKECVYFCHLDIIW; ends and bridges not checked; cysteine pairing not given here; UniProt P05305 53-73, looked up) [ET-1, a typical inducer of smooth muscle contraction]
F340/380, accounting for ET-1-induced calcium increase [5]: 1.47±0.03

Next, values leading:

effect on current (TRPC6 ion channel [2]): completely decreased
Compound: [La+3] [La^3+]

whole-cell current at −100 mV (TRPC6 ion channel [1]; after adding 200 μM PE): −90.0±15.0 pA
change of whole-cell current on application (TRPC6 ion channel [1]): nearly no currents changed
Compound: CNC[C@H](O)c1cccc(O)c1 [PE, phenylephrine]
